Source: ChEMBL document CHEMBL5357029, “Informatics and Computational Approaches for the Discovery and Optimization of Natural Product-Inspired Inhibitors of the SARS-CoV-2 2'-O-Methyltransferase” (J Nat Prod, 2024)
Activity calls are given as the source filed them. The rule behind the calls is not given here.

Columns and labels:
SARS-CoV-2 = experiment: Antiviral activity against SARS-CoV-2 USA-WA1/2020 infected in african green monkey Vero cells assessed as reduction in viral replication by qRT-PCR analysis; type: functional, organism-based; settings: Severe acute respiratory syndrome coronavirus 2, USA-WA1/2020, Vero
PBMC = experiment: Cytotoxicity against human PBMC cells assessed as inhibition of cell proliferation incubated for 2 to 4 days by CellTiter 96 non-radioactive cell proliferation assay; type: toxicity, cell-based; settings: time 2-4 day
[1] = (§1) Cytotoxicity against African green monkey Vero cells assessed as inhibition of cell proliferation incubated for 2 to 4 days by CellTiter 96 non-radioactive cell proliferation assay; type: toxicity, cell-based; settings: chlorocebus sabaeus, Vero cells; time 2-4 day
[2] = tested on: Severe acute respiratory syndrome coronavirus 2; experiment: Inhibition of SARS-CoV-2 nsp10/nsp16 2'-O-methyltransferase activity expressed in NiCo21 (DE3) cells using m7GpppAUUAA and S-adenosylmethionine as substrate at 10 uM incubated for 25 mins by luminescence based MTase Glo assay
[3] = Inhibition of SARS-CoV-2 nsp10/nsp16 2'-O-methyltransferase activity expressed in NiCo21 (DE3) cells using m7GpppAUUAA and S-adenosylmethionine as substrate by filter binding assay; set-up: species or system Severe acute respiratory syndrome coronavirus 2
Vero = experiment: as §1; type: toxicity, cell-based; settings: chlorocebus sabaeus, vero; time 2-4 day
[4] = Inhibition of SARS-CoV-2 nsp10 (1 to 139 residues)/nsp16 (1 to 298 residues) expressed in Escherichia coli BL21(DE3)RIL cells using RNA and [3H]SAM as substrate incubated for 1 hrs by SPA-based assay; set-up: species or system Severe acute respiratory syndrome coronavirus 2

| Structure (SMILES) | EC50 (SARS-CoV-2) [µM] | CC50 (PBMC) [µM] | CC50 [1] [µM] | inhibition [2] | IC50 [3] [µM] | CC50 (Vero) [µM] | IC50 [4] [µM] |
| --- | --- | --- | --- | --- | --- | --- | --- |
| CCC(CC)COC(=O)[C@H](C)N[P@](=O)(OC[C@H]1O[C@@](C#N)(c2ccc3c(N)ncnn23)[C@H](O)[C@@H]1O)Oc1ccccc1 | 2.3 | 2 | > 100 |  |  |  |  |
| CC1=CC[C@H]2[C@H](C1)c1c(/C=C/c3ccc(O)cc3)cc(O)cc1OC2(C)C | 4.7 | 60.4 |  | Active | 13.6 | 11.9 |  |
| Nc1ncnc2c1ncn2[C@@H]1O[C@H](C[C@@H](N)CC[C@H](N)C(=O)O)[C@@H](O)[C@H]1O [SINEFUNGIN] |  |  |  | Active |  |  | 3.4 |
| CC1=CC[C@H]2[C@H](C1)c1c(O)cc(/C=C/c3ccc(O)cc3)cc1OC2(C)C | 7 | 53.4 |  | Active | 13.3 | 22.3 |  |
